Measurements published in patent US20100004159A1, “SUBSTITUTED IMIDAZOLONE DERIVATIVES, PREPARATIONS AND USES” (GENFIT, priority 2006, published 2010).

Assays:
[1] = target: T1, angiotensin II AT1 receptor (Oryctolagus cuniculus, UniProt P34976); test: Ex vivo agonist/antagonist activity on isolated rabbit thoracic aorta rings; settings: 0.3, 3 and 30 μM; for agonist activity (contraction): non-treated rabbit thoracic aorta; for antagonist activity (inhibition of contractile response to angiotensin II): rabbit thoracic aorta previously exposed to angiotensin II 0.003 μM
T1 construct: tissue CEREP; host or cells: rabbit thoracic aorta rings
T1 sequence (P34976 1-359): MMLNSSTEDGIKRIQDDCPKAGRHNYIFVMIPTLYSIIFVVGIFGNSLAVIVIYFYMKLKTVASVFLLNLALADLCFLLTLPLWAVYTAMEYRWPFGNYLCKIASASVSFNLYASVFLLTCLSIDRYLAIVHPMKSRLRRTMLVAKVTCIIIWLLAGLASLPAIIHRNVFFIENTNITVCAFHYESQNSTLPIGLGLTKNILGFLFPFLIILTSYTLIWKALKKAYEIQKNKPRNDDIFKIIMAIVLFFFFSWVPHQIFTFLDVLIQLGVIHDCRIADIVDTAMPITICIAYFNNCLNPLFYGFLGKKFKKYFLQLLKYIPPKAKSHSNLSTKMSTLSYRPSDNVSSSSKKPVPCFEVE
Procedure: This activity is either agonist or antagonist and was evaluated ex vivo on isolated organs. Agonist activity corresponds to tissue contraction. Antagonist activity corresponds to tissue dilatation.
The ex vivo test was performed at the CEREP (Celle L'Evescault, France (86)) following a protocol based on Pendleton et al. (Pendleton R G et al.,1989). Rabbit thoracic aorta rings with intact endothelium were suspended in baths for organs containing an oxygenated physiologic saline solution (95% O2 and 5% CO2) and preheated (37° C.) having the following composition (mM): NaCl 118.0, KCl 4.7, MgSO4 1.2, CaCl2 2.5, KH2PO4 1.2, NaHCO3 25.0, and glucose 11.0 (pH 7.4).
Benextramine (1 μM), propranolol (1 μM), pyrilamine (1 μM), atropine (1 μM), methysergide (1 μM), and captopril (0.1 μM) were also used in all carried out experiments to block respectively α-adrenergic, β-adrenergic, histaminic H1 muscarinic, and 5-HT2 receptors as well as to prevent peptide degradation. The tissues were bound to a force sensor suitable for isometric tension recording. They were stretched to a resting tension of 4 g, then stabilized for 60 minutes. During the stabilization, they were washed several times and the tension was adjusted. The experiments were carried out using semi-automatic systems of isolated organs with eight organ baths and multichannel data acquisition.
The tissues were exposed to a submaximal concentration of the reference agonist (angiotensin II at 0.003 μM) to verify the response and obtain a control contractile response.
After several washing operations and after having recovered the basal tone, the tissues were exposed to increasing concentrations of compounds according to the invention or the same agonist. The different concentrations were added cumulatively, each one was left in contact with the tissues until a stable response was reached and for a maximum of 30 minutes. If an agonist type response (contraction) was registered, the reference antagonist (Saralasine at 0.01 μM) was tested regarding the highest concentration of the compounds according to the invention to confirm the involvement of the AT1 receptors in the response.
After stabilization of the contraction induced by angiotensin II, increasing concentrations of compounds according to the invention or of the reference antagonist (Saralasine) were added cumulatively. Each concentration was left in contact with the tissues until a stable response was observed and for a maximum of 30 minutes.
The inhibiting effect of the compounds according to the invention on the contraction induced by the angiotensin 11 indicates antagonist activity on AT1 receptors.

[2] = tested on: SHR rats (spontaneous hypertensive rats); test: SHR rats treated 14 days: plasma triglycerides, arterial pressure, response to angiotensin II; type: in vivo, rat
Procedure: SHR rats (spontaneous hypertensive rats) (male sex—300-320 g—16-weeks old—Charles River France) were kept on a light/dark cycle of 12/12 hours at a constant temperature of 20±3° C. The compounds according to the invention being tested were suspended in carboxymethylcellulose (Sigma c4888) and administered to the animals by intra-gastric gavage, once a day for 14 days at the chosen doses. The animals had free access to food and water.
At the end of the experiment, after a 5-hour fast, the animals were anesthetized for surgery with pentobarbital (50 mg/kg). A catheter treated with heparin was placed in the carotid artery to measure arterial pressure. A second catheter was placed in the jugular vein to administer angiotensin II. Arterial pressure was measured and recorded at basal tone for 15 minutes. At this stage, the average arterial pressure of the control animals is compared to that of the animals having received the compounds according to the invention. After 15 minutes, three successive intravenous administrations of angiotensin II (50 ng/kg) were performed to evaluate the response to angiotensin II of animals treated with the compounds according to the invention.
At the end of the arterial pressure measurements, a blood sample was taken using anticoagulant (EDTA), then the animals were euthanized. The plasma was separated by centrifugation at 3000 rotations/minute for 20 minutes. The samples were kept at +4° C.
Plasma total concentrations of cholesterol, triglycerides, free fatty acids, and glucose were measured by enzymatic assays (bioMerieux-Lyon-France and Wako-Japan) according to the provider's recommendations.

| agonist activity (contraction) [1] | melting point [°C] | Compound | antagonist activity (inhibition of contractile response to angiotensin II) [1] | hypertension induced by angiotensin II (difference of arterial pressure) ([2]; chronic treatment, 100 mpk, repeated administrations of angiotensin II) | arterial pressure before administrations of angiotensin II ([2]; 14 days of treatment, 150 mpk) | plasma triglyceride rate ([2]; 14 days of treatment, 150 mpk, intra-gastric) | hypertension induced by angiotensin II (difference of arterial pressure) ([2]; 14 days of treatment, 150 mpk, three intravenous administrations of angiotensin II 50 ng/kg) |
| --- | --- | --- | --- | --- | --- | --- | --- |
| do not induce contraction | 160 to 162 | CCCCC1=NC2(CCCCC2)C(=O)N1Cc1ccc(-c2cccc(OC(C)(C)C(=O)O)c2)cc1 [Compound 21, 2-butyl-1-[(3′-((1-carboxy-1,1-dimethylmethyl)oxy)biphenyl-4-yl)methyl]-4-spirocyclohexyl-1H-imidazol-5(4H)-one] | inhibiting effect of the contractile response of the reference agonist | significant antagonist effect on angiotensin II |  |  |  |
| do not induce contraction | 169 to 171 | CCCCC1=NC2(CCCC2)C(=O)N1Cc1ccc(-c2cccc(OC(C)(C)C(=O)O)c2)cc1 [Compound 1, 2-butyl-1-[(3′-((1-carboxy-1,1-dimethylmethyl)oxy)biphenyl-4-yl)methyl]-4-spirocyclopentyl-1H-imidazol-5(4H)-one] | inhibiting effect of the contractile response of the reference agonist |  | antihypertensive effect | unexpectedly decreased | significant antagonist effect on angiotensin II |
